Measured values taken from patent US20150157691A1, “Galectin-3 to Treat Ovarian Cancer” (Texas Tech University System, priority 2013, published 2015).

Legend:
HUVEC cells [1] = assay: In vitro tubule formation (angiogenesis) assay with OC conditioned media; format: cell-based, human; conditions: for formation of vessel-like structures by HUVEC cells: conditioned media (20% V/V) of OC cells pre-treated 48 hours, 10 μg/mL Gal-3C, 8 nM paclitaxel or combination; for average number of branching points: conditioned media of 48-h treated OC cells, all tested OC cells, compared with vehicle-treated cells; for tubule formation, direct effect of drugs: conditioned media of untreated OC cells (20% V/V) supplemented with 10 μg/mL Gal-3C, 8 nM paclitaxel or both, results not shown
Protocol: Tubule formation assay. A capillary tubule formation assay was performed as previously described (25). Briefly, growth factor-reduced Matrigel™ (50 μL/well; Becton Dickinson) was added with 30 ng/mL recombinant basic fibroblastic growth factor (bFGF; R&D Systems) and incubated for 1 hour at 37° C. 2-h serum-starved HUVEC cells (5,000), were resuspended in 200 μL serum-free EGM-2 medium (Lonza) supplemented with 20% V/V conditioned medium from differently treated OC cells (obtained after 48-h treatment of OC cells with 10 μg/mL Gal-3C, 8 nM paclitaxel, the combination of both, or 0.6% V/V PBS as drug vehicle). HUVEC were then seeded onto the Matrigel™ and incubated at 37° C. and 5% CO2 for 16 hours to allow tubule formation. The assays were run in triplicate, and microphotographs were taken using 40× and 20× objectives with an inverted X71 microscope (Olympus). Pictures were also used to count the number of branching points originated by HUVEC cells, as a measure of the degree of angiogenesis, by the Wimasis WimTube software (Wimasis GmbH, Munich, Germany). Statistically significant differences in the number of branching points were analyzed by the Kruskal-Wallis test followed by a Dunns post-test, to compare all the treatment groups with each other.
Gal-3C blocked OC cell angiogenic potential and αvβ3 integrin clustering. To study the effects of Gal-3C on OC cells ability to induce the formation of new vessels, an in vitro tubule formation assay was carried out using HUVEC cells stimulated with the conditioned media (20% V/V) of OC cells pre-treated for 48 hours with 10 μg/mL Gal-3C, 8 nM paclitaxel, or a combination of both treatments. […] The amount of branching points was also calculated through the Wimasis WimTube software, as described hereinabove. […] A parallel set of experiments were performed using a mixture consisting of the 48-hour conditioned media of each untreated OC cell line (20% V/V) supplemented with 10 μg/mL Gal-3C, 8 nM paclitaxel, or 10 μg/mL Gal-3C+8 nM paclitaxel. […] This outcome on in vitro angiogenesis was correlated with an evident reduction in the clusters of αvβ3 integrins (FIG. 7).

Akt/NF-κB pathway = assay: Western blotting of Akt/NF-κB pathway activation in OC cells; format: cell-based; conditions: 48 hours, Western blot; for levels of phosphorylated, active NF-κB (P-p65) / phospho-Akt (P-Akt) levels: 10 μg/mL Gal-3C, 8 nM paclitaxel or combined
Protocol: Western blotting. Cells were harvested and washed twice with PBS, then lysed (25), and resolved on 12% Bis-Tris (Bis(2-hydroxyethyl)-amino-tris(hydroxymethyl)-methane) poly-acrylamide gel (Invitrogen) and then electrotransferred onto 0.2 μm nitrocellulose membrane. After rinsing in PBS-Tween, the blot was incubated in protein-free blocking buffer (Pierce/Thermo) at 4° C. overnight, then incubated with the indicated primary antibodies (Cell Signaling Technology, Inc., Danvers, Mass. USA) diluted in blocking buffer for 2 hours at RT. After washing 5 times with PBS-Tween, the blot was incubated with matched horseradish peroxidase-coupled secondary antibodies, and developed with the ECL Western blotting Detection System from Perkin-Elmer Life Sciences (Boston, Mass., USA).
Gal-3C reversed the effect of paclitaxel on NF-κB activation by reducing the phosphorylation of Akt. OC cells treated for 48 hours with 10 μg/mL Gal-3C, 8 nM paclitaxel, or combined treatments as described above, then protein extracts were analyzed by Western blotting. […] Increased or decreased levels of p65 phosphorylation (P-p65) were in accordance with higher or lower levels (respectively) of IKB and IKKα/β phosphorylation, as expected. […] To rule out the possibility that alterations in the phosphorylation of p-65, IKB, IKK, or Akt were the results of modulations in the expression levels, total p-65, IKB, IKK, or Akt (phosphorylated and not-phosphorylated forms) were also examined (FIGS. 3A and 3B).

HUVEC cells [2] = assay: Vascular endothelial cell (HUVEC) Transwell migration assay with OC conditioned medium; format: cell-based, human; conditions: for HUVEC migration induced by conditioned media of treated OC cells: conditioned media from SKOV-3 cells treated 48 hours, 10 μg/mL Gal-3C or 8 nM paclitaxel, compared with controls; for HUVEC chemotaxis, direct effect of residual drugs: control OC-conditioned medium supplemented with 2 μg/mL Gal-3C, 1.6 nM paclitaxel, or combined, results not shown
Protocol: The experiments were run in triplicate and the results are expressed as the mean number of migrated cells in the presence of different stimuli.
After 48-hour treatments (10 μg/mL Gal-3C, 8 nM paclitaxel, or combined drugs), the conditioned media form SKOV-3 cells was harvested and tested for its ability to induce migration of HUVEC cells in a Transwell assay. […] To test if residual drugs in the conditioned media could inhibit HUVEC migration, a migration assay was performed in the presence of control OC-conditioned medium supplemented with 20% of drug amounts (2 μg/mL Gal-3C, 1.6 nM paclitaxel, and combined drugs).

[3] = test system: αvβ3 integrin clusters in HUVEC cells; assay: αvβ3 integrin clustering assay; format: cell-based, human; conditions: conditioned medium of OC cells pre-treated 48 h; 10 μg/mL Gal-3C, 8 nM paclitaxel or combined
Protocol: αvβ3 integrin clustering assay. HUVEC cells were cultured in 8-chamber slides coated with 10 μg/mL fibronectin (10^4 cells/chamber). Cells were incubated with conditioned medium of SKOV-3 cells (obtained as described for the tubule formation assay) for 20 minutes to allow integrin clustering, then fixed with 4% WN buffered (pH=7.5) paraformaldehyde in PBS (10 minutes at 37° C.). Then, cells were incubated with 10 μg/mL anti-integrin αvβ3 antibody (R&D Systems, 1:200 dilution in PBS) for 1 hour at RT, followed by two washing steps in PBS (5 minutes each) prior to the addition of FITC-anti-mouse IgG (1:1000 dilution in PBS) for 1 hour at RT. Microphotographs of randomly selected fields were acquired at 60× magnification by confocal microscopy (Leica TCS-SL Confocal Spectral Microscope System, Leica Microsystems, Buffalo Grove, Ill., USA).
Gal-3C blocked OC cell angiogenic potential and αvβ3 integrin clustering. To study the effects of Gal-3C on OC cells ability to induce the formation of new vessels, an in vitro tubule formation assay was carried out using HUVEC cells stimulated with the conditioned media (20% V/V) of OC cells pre-treated for 48 hours with 10 μg/mL Gal-3C, 8 nM paclitaxel, or a combination of both treatments. […] The amount of branching points was also calculated through the Wimasis WimTube software, as described hereinabove. […]

[4] = compared with available standard treatments; cited from earlier work
Pt1 = assay: Cell viability (ViaLight Plus), primary OC cells Pt1; format: cell-based, human; conditions: Gal-3C single agent, escalating concentrations (0, 2, 10, 20 μg/mL), 48 hours, on average
Protocol: (§1) Cells. The OC cell lines used in this study were SKOV-3 and ID8 (American Type Culture Collection, Manassas, Va., USA), while primary epithelial OC cells from two patients were obtained with approval from the Texas Tech University HSC IRB (L-Micro Study, IRB NUMBER: L04-095), and the patients' written informed consent. All OC cells were cultured in RPMI-1640 medium supplemented with 10% fetal bovine serum (FBS, Thermo Scientific, Rockford, Ill., USA) in 5% CO2 atmosphere at 37° C. Human Umbilical Vein Endothelial Cells (HUVEC, American Type Culture Collection) were maintained in EGM-2 medium supplemented with endothelial cells growth factors (Lonza, Houston, Tex., USA) and were used within 10 passages.
(§2) Cell viability. Cell proliferation was assessed with a ViaLight Plus Cell Proliferation and Cytotoxicity BioAssay Kit (Lonza, Walkersville, Md., USA) according to the directions of the manufacturer. […] Luminescence was measured with a 1-s integrated setting in a Berthold luminometer.
(§3) Administration of Gal-3C reduced OC cell viability when used as a single agent and improved the effects of paclitaxel. OC cells were treated with escalating concentrations of Gal-3C (0, 2, 10, and 20 μg/mL) for 48 hours, then viability was measure as described in methods, and expressed as percentage of control cells (treated with equal amounts of drug vehicle). […]

OC cells [5] = assay: Transwell migration assay of OC cells; format: cell-based; conditions: 48-hour treatment; 10 μg/mL Gal-3C, 8 nM paclitaxel or combined; compared with controls
Protocol: Migration assays. 4×10^5 cells were plated in 100 μL serum-free culture medium (supplemented with drugs or vehicle) in the top chambers of 24-well Transwell™ polycarbonate inserts (Corning Costar, NY, USA) with 8-μm pores. Complete culture medium (600 μL) was added to the bottom chamber. After incubation for 4 hours, cells on lower side of the filter were fixed, stained and counted as described (25).
After 48-hour treatment with 10 μg/mL Gal-3C, 8 nM paclitaxel, or combined drugs, OC cells were tested for in vitro invasivity and motility abilities as described in methods.

Pt2 = assay: Cell viability (ViaLight Plus), primary OC cells Pt2; format: cell-based, human; conditions: Gal-3C single agent, escalating concentrations (0, 2, 10, 20 μg/mL), 48 hours, on average
Protocol: as §1, §2, §3

SKOV-3 = assay: Cell viability (ViaLight Plus), SKOV-3; format: cell-based, human; conditions: Gal-3C single agent, escalating concentrations (0, 2, 10, 20 μg/mL), 48 hours, on average
Protocol: (§4) Cell viability. Cell proliferation was assessed with a ViaLight Plus Cell Proliferation and Cytotoxicity BioAssay Kit (Lonza, Walkersville, Md., USA) according to the directions of the manufacturer. In brief, OC cells were seeded in 100 μL RPMI-1640 with 10% heat-inactivated FBS in 96-well plates (8×10^3/well). Each drugs/drug combination was tested in triplicate. Luminescence was measured with a 1-s integrated setting in a Berthold luminometer.
(§5) Administration of Gal-3C reduced OC cell viability when used as a single agent and improved the effects of paclitaxel. OC cells were treated with escalating concentrations of Gal-3C (0, 2, 10, and 20 μg/mL) for 48 hours, then viability was measure as described in methods, and expressed as percentage of control cells (treated with equal amounts of drug vehicle). […] On average, viability was reduced by 25% in SKOV-3, 50% in ID8, 29% in Pt1 and 57% in Pt2 cells. Then, in a separate set of experiments, OC cells were treated for 48 hours with 10 μg/mL Gal-3C, 8 nM paclitaxel, or combined 10 μg/mL Gal-3C+8 nM paclitaxel.

[6] = test system: OC cells (SKOV-3, ID8, Pt1, Pt2); assay: Cell viability, statements for all OC cells tested; format: cell-based; conditions: 48 hours
Protocol: as §4, §5

ID8 = assay: Cell viability (ViaLight Plus), ID8; format: cell-based, murine; conditions: Gal-3C single agent, escalating concentrations (0, 2, 10, 20 μg/mL), 48 hours, on average
Protocol: as §4, §5

OC cells [7] = assay: Matrigel invasion assay; format: cell-based; conditions: 48-hour treatment; 10 μg/mL Gal-3C, 8 nM paclitaxel or combined; compared with controls
Protocol: Invasion assay. OC invasion potential was measured as described (25), using Transwell™ polycarbonate inserts (5-μm pore size).
Gal-3C reduced OC invasion and migration alone and in combination with paclitaxel. After 48-hour treatment with 10 μg/mL Gal-3C, 8 nM paclitaxel, or combined drugs, OC cells were tested for in vitro invasivity and motility abilities as described in methods.

Row | Compound | formation of vessel-like structures by HUVEC cells (HUVEC cells [1]) | average number of branching points (HUVEC cells [1]) | tubule formation, direct effect of drugs (HUVEC cells [1]) | levels of phosphorylated, active NF-κB (P-p65) (Akt/NF-κB pathway) | phospho-Akt (P-Akt) levels (Akt/NF-κB pathway) | HUVEC migration induced by conditioned media of treated OC cells (HUVEC cells [2]) | HUVEC chemotaxis, direct effect of residual drugs (HUVEC cells [2]) | αvβ3 integrin clusters in HUVEC cells [3] | toxicity profile [4] | viability reduced (percentage of control cells) (Pt1) [%] | OC cell migration (OC cells [5]) | viability reduced (percentage of control cells) (Pt2) [%] | phosphorylated IKKB, IKK levels (Akt/NF-κB pathway; 10 μg/mL Gal-3C alone, compared with controls) | viability reduced (percentage of control cells) (SKOV-3) [%] | concentration from which cell viability is significantly reduced ([6]; 0, 2, 10, 20 μg/mL tested) [µg/mL] | cell viability, comparison between treatments ([6]; 10 μg/mL Gal-3C, 8 nM paclitaxel or combined) | viability reduced (percentage of control cells) (ID8) [%] | OC cell invasion (OC cells [7])
1 | CC(=O)O[C@H]1C(=O)[C@@]2(C)[C@H]([C@H](OC(=O)c3ccccc3)[C@]3(O)C[C@H](OC(=O)[C@H](O)[C@@H](NC(=O)c4ccccc4)c4ccccc4)C(C)=C1C3(C)C)[C@]1(OC(C)=O)CO[C@@H]1C[C@@H]2O [paclitaxel, Paclitaxel, reference compound] | significantly reduce | significantly reduced | unable to significantly affect tubule formation | increased | increased | unable to reduce the production of HUVEC chemotactic factors | did not significantly affect HUVEC chemotaxis | still preserved the ability to induce αvβ3 integrin cluster in HUVEC cells (even if at a lower extent compared with control) | – | – | – | – | – | – | – | – | – | –
2 | Gal-3C: truncated, dominant-negative form of Galectin-3; last 143 carboxy-terminal amino acid residues of human Galectin-3 (SEQ ID NO. 4) | significantly reduce | significantly reduced | unable to significantly affect tubule formation | reduction | reduction | significant effect | did not significantly affect HUVEC chemotaxis | completely abrogated | very low toxicity profile | 29 | significantly reduced | 57 | reduction | 25 | ≥ 10 | more effective in reducing cell viability compared with paclitaxel in all cell lines except SKOV-3 | 50 | significantly reduced
